From ChEMBL document CHEMBL4196033, “Potent hydrazone derivatives targeting esophageal cancer cells” (Eur J Med Chem, 2018)
Calls of active or inactive are those of the source. The rule behind the calls is not given here.

What was measured:
ECa-109 cell line [1] = assay: Induction of morphological changes in human EC109 cells assessed as cell rounding after 48 hrs by Hoechst 33342 staining based fluorescence microscopic method; format: functional
ECa-109 cell line [2] = assay: Induction of apoptosis in human EC109 cells assessed as late apoptotic cells at 8 uM after 48 hrs by Annexin V-FITC/propidium iodide staining based flow cytometry (reference value: 0.2 to 1.74%); format: functional
EC9706 [3] = assay: Induction of apoptosis in human EC9706 cells assessed as necrotic cells at 8 uM after 48 hrs in presence of caspase inhibitor Z-VAD-FMK by Annexin V-FITC/propidium iodide staining based flow cytometry (reference value: 1.2%); format: functional
GES1 = assay: Antiproliferative activity against human GES-1 cells after 72 hrs by MTT assay; format: cell-based; conditions: GES1, 72 h
ECa-109 cell line [4] = assay: Cell cycle arrest in human EC109 cells assessed as accumulation at G0/G1 phase after 24 hrs by propidium iodide staining based flow cytometry; format: functional
EC9706 [5] = assay: Induction of apoptosis in human EC9706 cells assessed as increase in cleaved caspase-9 protein expression after 48 hrs by Western blot analysis; format: functional, cell-based
ECa-109 cell line [6] = assay: Induction of apoptosis in human EC109 cells assessed as live cells at 4 uM after 48 hrs by Annexin V-FITC/propidium iodide staining based flow cytometry (reference value: 95.2 to 99%); format: functional
EC9706 [7] = assay: Cell cycle arrest in human EC9706 cells assessed as increase in S phase population at 2 uM after 24 hrs by propidium iodide staining based flow cytometry relative to control; format: functional
ECa-109 cell line [8] = assay: Induction of apoptosis in human EC109 cells assessed as late apoptotic cells at 2 uM after 48 hrs by Annexin V-FITC/propidium iodide staining based flow cytometry (reference value: 0.2 to 1.74%); format: functional
EC9706 [9] = assay: Induction of apoptosis in human EC9706 cells assessed as necrotic cells at 2 uM after 48 hrs by Annexin V-FITC/propidium iodide staining based flow cytometry (reference value: 1.1 to 1.31%); format: functional
ECa-109 cell line [10] = assay: Induction of morphological changes in human EC109 cells assessed as apoptotic body formation after 48 hrs by Hoechst 33342 staining based fluorescence microscopic method; format: functional, cell-based
EC9706 [11] = assay: Induction of apoptosis in human EC9706 cells assessed as live cells at 4 uM after 48 hrs by Annexin V-FITC/propidium iodide staining based flow cytometry (reference value: 85.5 to 96%); format: functional
EC9706 [12] = assay: Induction of apoptosis in human EC9706 cells assessed as increase in cleaved caspase-3 protein expression after 48 hrs by Western blot analysis; format: functional, cell-based
EC9706 [13] = assay: Induction of apoptosis in human EC9706 cells assessed as decrease in Bid protein expression at 2 to 8 uM after 48 hrs by Western blot analysis; format: functional, cell-based
ECa-109 cell line [14] = assay: Induction of ROS generation in human EC109 cells at 4 uM after 24 hrs by DCFH-DA staining based flow cytometry relative to control; format: functional
ECa-109 cell line [15] = assay: Effect on Prxs-5 protein expression in human EC109 cells at 2 to 8 uM after 48 hrs by Western blot analysis; format: functional, cell-based
ECa-109 cell line [16] = assay: Induction of apoptosis in human EC109 cells assessed as increase in cleaved caspase-9 protein expression after 48 hrs by Western blot analysis; format: functional, cell-based
ECa-109 cell line [17] = assay: Induction of apoptosis in human EC109 cells assessed as early apoptotic cells at 4 uM after 48 hrs by Annexin V-FITC/propidium iodide staining based flow cytometry (reference value: 0.43 to 1.15%); format: functional
ECa-109 cell line [18] = assay: Antiproliferative activity against human EC109 cells after 24 hrs by MTT assay; format: functional, cell-based; conditions: ECa-109, 24 h
Mus musculus [19] = assay: Acute toxicity in C57BL/6 mouse assessed as histopathological changes in heart at 2 g/kg, ig measured for 2 weeks by hematoxylin and eosin staining based microscopic method; format: organism-based; conditions: in vivo, po, 2000 mg/kg, 336 h
ECa-109 cell line [20] = assay: Induction of morphological changes in human EC109 cells assessed as chromatin condensation after 48 hrs by Hoechst 33342 staining based fluorescence microscopic method; format: functional, cell-based
EC9706 [21] = assay: Induction of apoptosis in human EC9706 cells assessed as live cells at 4 uM after 48 hrs in presence of caspase inhibitor Z-VAD-FMK by Annexin V-FITC/propidium iodide staining based flow cytometry (reference value: 95.7%); format: functional
Mus musculus [22] = assay: Acute toxicity in C57BL/6 mouse assessed as change in body weight at 2 g/kg, ig measured for 2 weeks; format: organism-based; conditions: in vivo, po, 2000 mg/kg, 336 h
MGC-803 = assay: Antiproliferative activity against human MGC803 cells after 72 hrs by MTT assay; format: functional, cell-based; conditions: MGC-803, 72 h
EC9706 [23] = assay: Induction of ROS generation in human EC9706 cells at 4 uM after 24 hrs by DCFH-DA staining based flow cytometry relative to control; format: functional
EC9706 [24] = assay: Cell cycle arrest in human EC9706 cells assessed as decrease in G2/M phase population at 2 uM after 24 hrs by propidium iodide staining based flow cytometry relative to control; format: functional
EC9706 [25] = assay: Induction of apoptosis in human EC9706 cells at 2 to 4 uM after 48 hrs in presence of anti-oxidant NAC by Annexin V-FITC/propidium iodide staining based flow cytometry; format: functional, cell-based
ECa-109 cell line [26] = assay: Upregulation of p27 protein expression in human EC109 cells at 2 uM after 24 to 48 hrs by Western blot analysis relative to control; format: functional
EC9706 [27] = assay: Induction of morphological changes in human EC9706 cells assessed as apoptotic body formation after 48 hrs by Hoechst 33342 staining based fluorescence microscopic method; format: functional, cell-based
EC9706 [28] = assay: Induction of apoptosis in human EC9706 cells assessed as increase in Bax protein expression after 48 hrs by Western blot analysis; format: functional, cell-based
ECa-109 cell line [29] = assay: Induction of apoptosis in human EC109 cells assessed as increase in cleaved PARP protein expression after 48 hrs by Western blot analysis; format: functional, cell-based
ECa-109 cell line [30] = assay: Induction of apoptosis in human EC109 cells assessed as increase in Bax protein expression after 48 hrs by Western blot analysis; format: functional, cell-based
ECa-109 cell line [31] = assay: Upregulation of p27 protein expression in human EC109 cells at 8 uM after 24 to 48 hrs by Western blot analysis relative to control; format: functional
EC9706 [32] = assay: Induction of apoptosis in human EC9706 cells assessed as late apoptotic cells at 8 uM after 48 hrs by Annexin V-FITC/propidium iodide staining based flow cytometry (reference value: 1.29 to 1.99%); format: functional
ECa-109 cell line [33] = assay: Induction of ROS generation in human EC109 cells at 2 to 4 uM after 24 hrs in presence of anti-oxidant NAC by DCFH-DA staining based flow cytometry; format: functional, cell-based
EC9706 [34] = assay: Cell cycle arrest in human EC9706 cells assessed as increase in G0/G1 phase population at 2 uM after 24 hrs by propidium iodide staining based flow cytometry relative to control; format: functional
ECa-109 cell line [35] = assay: Anticlonogenic activity against human EC109 cells after 7 days by crystal violet staining based assay; format: functional, cell-based
EC9706 [36] = assay: Upregulation of p27 protein expression in human EC9706 cells at 8 uM after 24 to 48 hrs by Western blot analysis relative to control; format: functional

**Q.** Which Activity (ECa-109 cell line [1]) does the source give for `COc1ccc(/C=N/NC(=O)c2cccc(S(=O)(=O)N3CCOCC3)c2)c(O)c1` here?
**A.** Its Activity is “Dose-dependent effect”.

**Q.** What about the Activity (ECa-109 cell line [2]) of the same molecule?
**A.** Its Activity is 42.4 - 43%.

**Q.** What about the Activity (EC9706 [3]) of the same molecule?
**A.** Its Activity is 17%.

**Q.** And the IC50 (GES1)?
**A.** The IC50 was 14.4 µM.

**Q.** What about the Activity (ECa-109 cell line [4]) of the same molecule?
**A.** The Activity was “Dose-dependent effect”.

**Q.** What about the Activity (EC9706 [5]) of the same molecule?
**A.** The Activity was “Dose-dependent effect”.

**Q.** And the Activity (ECa-109 cell line [6])?
**A.** The Activity was 27.2 - 63.6%.

**Q.** What about the “fold change (FC)” value (EC9706 [7]) of the same molecule?
**A.** The value was 1.54.

**Q.** And the Activity (ECa-109 cell line [8])?
**A.** Its Activity is 6.84%.

**Q.** And the Activity (EC9706 [9])?
**A.** The Activity was 10.1%.

**Q.** What about the Activity (ECa-109 cell line [10]) of the same molecule?
**A.** The Activity was “Dose-dependent effect”.

**Q.** And the Activity (EC9706 [11])?
**A.** Its Activity is 34.2 - 61.2%.

**Q.** What about the Activity (EC9706 [12]) of the same molecule?
**A.** Its Activity is “Dose-dependent effect”.

**Q.** And the Activity (EC9706 [13])?
**A.** The Activity was “Active”.

**Q.** And the “fold change (FC)” value (ECa-109 cell line [14])?
**A.** Its value is 2.05.

**Q.** What about the Activity (ECa-109 cell line [15]) of the same molecule?
**A.** The Activity was “Active”.

**Q.** And the Activity (ECa-109 cell line [16])?
**A.** Its Activity is “Dose-dependent effect”.

**Q.** And the Activity (ECa-109 cell line [17])?
**A.** The Activity was 17.8 - 22.4%.

**Q.** And the IC50 (ECa-109 cell line [18])?
**A.** The IC50 was greater than 20 µM.

**Q.** What about the Activity (Mus musculus [19]) of the same molecule?
**A.** The Activity was “Non-Toxic”.

**Q.** What about the Activity (ECa-109 cell line [20]) of the same molecule?
**A.** Its Activity is “Dose-dependent effect”.

**Q.** What about the Activity (EC9706 [21]) of the same molecule?
**A.** Its Activity is 42.1%.

**Q.** And the Activity (Mus musculus [22])?
**A.** Its Activity is “Non-Toxic”.

**Q.** And the IC50 (MGC-803)?
**A.** The IC50 was 2.07 µM.

**Q.** What about the “fold change (FC)” value (EC9706 [23]) of the same molecule?
**A.** Its value is 1.45.

**Q.** And the “fold change (FC)” value (EC9706 [24])?
**A.** The value was 0.28.

**Q.** And the Activity (EC9706 [25])?
**A.** The Activity was “inactive”.

**Q.** What about the “fold change (FC)” value (ECa-109 cell line [26]) of the same molecule?
**A.** The value was 1.2.

**Q.** What about the Activity (EC9706 [27]) of the same molecule?
**A.** The Activity was “Dose-dependent effect”.

**Q.** What about the Activity (EC9706 [28]) of the same molecule?
**A.** The Activity was “Dose-dependent effect”.

**Q.** And the Activity (ECa-109 cell line [29])?
**A.** The Activity was “Dose-dependent effect”.

**Q.** And the Activity (ECa-109 cell line [30])?
**A.** Its Activity is “Dose-dependent effect”.

**Q.** And the “fold change (FC)” value (ECa-109 cell line [31])?
**A.** The value was 1.9.

**Q.** What about the Activity (EC9706 [32]) of the same molecule?
**A.** The Activity was 25 - 33.1%.

**Q.** What about the Activity (ECa-109 cell line [33]) of the same molecule?
**A.** The Activity was “inactive”.

**Q.** What about the “fold change (FC)” value (EC9706 [34]) of the same molecule?
**A.** The value was 1.07.

**Q.** And the Activity (ECa-109 cell line [35])?
**A.** The Activity was “Active”.

**Q.** What about the “fold change (FC)” value (EC9706 [36]) of the same molecule?
**A.** The value was 1.7.
